Measured values from US10039759B2, “Quinolines as FGFR kinase modulators” (priority 2011, dated 2018).
Where two headings read alike, the source gives them in different places.

What was measured:
[1] = target: Ba/F3-FGFR4-transfected cells (Homo sapiens, UniProt P22455); test: Ba/F3-FGFR4 cellular proliferation assay, Alamar Blue; type: cell-based; conditions: 24 hours
Method in brief: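 Ba/F3 cells transfected with human FGFR4, 20000 per well in phenol red-free RPMI-1640 with 10% FBS, exposed to compound (10 μM to 0.1 nM) for 24 h at 37 °C. Viability by Alamar Blue (resazurin), 4 h, fluorescence ex 540/em 590 nm; IC50 and pIC50 calculated.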

KDR (h) = KDR (h) (Homo sapiens, UniProt P35968); test: KDR (VEGFR2) (enzymatic assay), TR-FRET; type: biochemical; conditions: 3 μM ATP, 120 min; pIC50 = -log IC50 (M); average if tested multiple times; read-out: VEGFR KDR pIC50 (converted)
Method in brief: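 Recombinant human KDR (150 ng/ml) phosphorylated 500 nM Btn-Flt3 with 3 μM ATP in HEPES pH 7.5/MnCl2 buffer, 1% DMSO, 120 min at room temperature; EDTA stop with Eu-anti-P-Tyr/SA-XL665 detection, TR-FRET read. IC50 and pIC50 derived from compound concentrations spanning 10 μM to 0.1 nM.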

FGFR1 (h) = FGFR1 (h) (Homo sapiens, UniProt P11362); test: FGFR1 (enzymatic assay), TR-FRET; type: biochemical; conditions: FGFR 1 pIC50, 5 μM ATP, 60 min; pIC50 = -log IC50 (M); average if tested multiple times
[2] = target: T1, Ba/F3-KDR-transfected cells (Homo sapiens, UniProt P35968, cells depend on it, form not given); test: Ba/F3-KDR (minus IL3 or plus IL3) cellular proliferation assay, Alamar Blue; type: cell-based; conditions: minus IL3; 24 hours, Alamar Blue
T1 construct: BAF3-KDR (MIN IL3 Alamar Blue pIC50); other: minus IL3; 24 hours, Alamar Blue
Method in brief: (§1)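 Ba/F3-KDR cells, 20000 per well, exposed to compounds (10 μM to 0.1 nM) for 24 h at 37°C in RPMI/10% FBS, then Alamar Blue for 4 h; fluorescence ex 540/em 590 nm gives IC50 and pIC50. Counterscreen run with 10 ng/ml murine IL3.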

FGFR3 (h) = FGFR3 (h) (Homo sapiens, UniProt P22607); test: FGFR3 (enzymatic assay), TR-FRET; type: biochemical; conditions: 25 μM ATP, 60 min; pIC50 = -log IC50 (M); average if tested multiple times; read-out: hFGFR 3 pIC50 (converted)
[3] = tested on: Ba/F3-FGFR1-transfected cells; test: Ba/F3-FGFR1 (minus IL3 or plus IL3) cellular proliferation assay, Alamar Blue; type: cell-based; conditions: plus IL3 (10 ng/ml murine IL3, counterscreen), 24 hours
Method in brief: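 Ba/F3-FGFR1 cells (20000/well) were treated with compound (10 μM–0.1 nM) for 24 h at 37 °C. Alamar Blue was then added for 4 h, with fluorescence read at ex 540/em 590 nm to give IC50/pIC50. A counterscreen was run with 10 ng/ml murine IL3.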

[4] = tested on: Ba/F3-FGFR3-transfected cells; test: Ba/F3-FGFR3 (minus IL3 or plus IL3) cellular proliferation assay, Alamar Blue; type: cell-based; conditions: for IC50: read-out: BAF3-FGFR3 (PLUS IL3 Alamar Blue pIC50) (converted)
Method in brief: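 Ba/F3-FGFR3 cells (20000 per well) in phenol red-free RPMI-1640 with 10% FBS were exposed to compound (10 μM to 0.1 nM) for 24 h at 37° C. Alamar Blue was then added for 4 h and fluorescence read (ex 540, em 590 nm) to give IC50/pIC50; the counterscreen was run with 10 ng/ml murine IL3.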

[5] = tested on: Ba/F3-KDR-transfected cells; test: Ba/F3-KDR (minus IL3 or plus IL3) cellular proliferation assay, Alamar Blue; type: cell-based; conditions: for IC50: read-out: BAF3-KDR (PLUS IL3 Alamar Blue pIC50) (converted)
Method in brief: as §1

[6] = plus IL3 (10 ng/ml murine IL3, counterscreen), 24 hours, Alamar Blue

Ba/F3-FGFR4-transfected cells, sequence (P22455 whole entry, change not shown): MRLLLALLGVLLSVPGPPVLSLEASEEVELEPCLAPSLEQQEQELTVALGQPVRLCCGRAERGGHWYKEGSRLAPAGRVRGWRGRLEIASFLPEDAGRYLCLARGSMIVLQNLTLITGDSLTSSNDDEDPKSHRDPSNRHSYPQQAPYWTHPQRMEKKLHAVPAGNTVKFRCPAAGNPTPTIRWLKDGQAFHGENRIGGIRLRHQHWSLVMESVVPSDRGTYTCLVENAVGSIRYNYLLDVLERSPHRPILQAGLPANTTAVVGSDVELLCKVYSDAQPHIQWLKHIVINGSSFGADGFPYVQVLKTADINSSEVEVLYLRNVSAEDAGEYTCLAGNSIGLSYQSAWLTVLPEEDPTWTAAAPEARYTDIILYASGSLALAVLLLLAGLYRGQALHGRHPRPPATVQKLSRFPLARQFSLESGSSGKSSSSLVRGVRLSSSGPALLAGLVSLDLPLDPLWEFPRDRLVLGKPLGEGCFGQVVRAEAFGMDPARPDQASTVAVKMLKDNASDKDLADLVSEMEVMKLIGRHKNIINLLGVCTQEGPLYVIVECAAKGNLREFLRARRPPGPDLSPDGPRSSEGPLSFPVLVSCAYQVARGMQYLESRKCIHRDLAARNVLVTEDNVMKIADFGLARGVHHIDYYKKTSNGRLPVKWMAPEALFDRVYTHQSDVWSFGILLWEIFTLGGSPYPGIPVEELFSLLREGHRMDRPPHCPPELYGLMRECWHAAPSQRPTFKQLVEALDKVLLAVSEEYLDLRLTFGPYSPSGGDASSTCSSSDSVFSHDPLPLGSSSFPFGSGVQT
FGFR3 (h), sequence (P22607 23-806): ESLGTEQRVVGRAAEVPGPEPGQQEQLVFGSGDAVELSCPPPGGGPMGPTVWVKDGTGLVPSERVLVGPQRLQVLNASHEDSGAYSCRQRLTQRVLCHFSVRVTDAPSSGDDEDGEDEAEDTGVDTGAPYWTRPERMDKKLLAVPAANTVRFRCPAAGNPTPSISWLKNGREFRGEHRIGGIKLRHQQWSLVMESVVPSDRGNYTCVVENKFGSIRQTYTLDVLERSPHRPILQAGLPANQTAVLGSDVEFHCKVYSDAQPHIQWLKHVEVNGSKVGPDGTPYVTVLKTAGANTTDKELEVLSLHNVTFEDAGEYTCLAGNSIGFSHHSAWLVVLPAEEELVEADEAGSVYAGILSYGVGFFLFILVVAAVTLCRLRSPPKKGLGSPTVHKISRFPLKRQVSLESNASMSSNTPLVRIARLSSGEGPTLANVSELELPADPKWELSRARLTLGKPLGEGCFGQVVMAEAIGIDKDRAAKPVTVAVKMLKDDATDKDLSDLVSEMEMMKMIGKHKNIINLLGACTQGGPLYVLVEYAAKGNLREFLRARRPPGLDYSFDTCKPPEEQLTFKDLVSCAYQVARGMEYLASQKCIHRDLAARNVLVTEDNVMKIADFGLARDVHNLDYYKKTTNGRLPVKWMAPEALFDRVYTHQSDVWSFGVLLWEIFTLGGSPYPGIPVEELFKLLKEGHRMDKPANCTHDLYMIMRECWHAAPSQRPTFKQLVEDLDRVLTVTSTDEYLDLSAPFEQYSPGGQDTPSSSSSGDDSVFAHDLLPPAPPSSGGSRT
FGFR1 (h), sequence (P11362 22-822): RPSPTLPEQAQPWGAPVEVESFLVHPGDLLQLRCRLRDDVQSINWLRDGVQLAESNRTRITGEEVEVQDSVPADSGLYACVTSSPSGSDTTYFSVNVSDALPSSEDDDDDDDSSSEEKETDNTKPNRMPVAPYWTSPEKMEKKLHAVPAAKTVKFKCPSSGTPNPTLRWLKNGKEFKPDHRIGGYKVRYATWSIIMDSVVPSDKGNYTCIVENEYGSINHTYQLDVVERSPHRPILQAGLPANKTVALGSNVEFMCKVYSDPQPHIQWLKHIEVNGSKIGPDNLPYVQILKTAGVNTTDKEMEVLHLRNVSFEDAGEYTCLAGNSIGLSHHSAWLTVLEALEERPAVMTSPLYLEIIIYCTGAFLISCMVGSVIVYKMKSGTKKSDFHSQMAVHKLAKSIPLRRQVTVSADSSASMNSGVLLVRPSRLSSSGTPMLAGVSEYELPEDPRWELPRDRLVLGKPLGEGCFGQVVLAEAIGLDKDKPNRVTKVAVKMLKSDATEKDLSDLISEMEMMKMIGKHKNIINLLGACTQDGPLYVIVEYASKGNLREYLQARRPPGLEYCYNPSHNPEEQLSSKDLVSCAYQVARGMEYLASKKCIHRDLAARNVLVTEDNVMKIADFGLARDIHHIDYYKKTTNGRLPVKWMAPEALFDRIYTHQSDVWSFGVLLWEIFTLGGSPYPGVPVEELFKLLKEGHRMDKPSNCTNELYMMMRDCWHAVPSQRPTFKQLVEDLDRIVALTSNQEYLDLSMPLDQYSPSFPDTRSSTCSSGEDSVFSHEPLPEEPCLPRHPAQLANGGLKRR
T1 sequence (P35968 whole entry, change not shown): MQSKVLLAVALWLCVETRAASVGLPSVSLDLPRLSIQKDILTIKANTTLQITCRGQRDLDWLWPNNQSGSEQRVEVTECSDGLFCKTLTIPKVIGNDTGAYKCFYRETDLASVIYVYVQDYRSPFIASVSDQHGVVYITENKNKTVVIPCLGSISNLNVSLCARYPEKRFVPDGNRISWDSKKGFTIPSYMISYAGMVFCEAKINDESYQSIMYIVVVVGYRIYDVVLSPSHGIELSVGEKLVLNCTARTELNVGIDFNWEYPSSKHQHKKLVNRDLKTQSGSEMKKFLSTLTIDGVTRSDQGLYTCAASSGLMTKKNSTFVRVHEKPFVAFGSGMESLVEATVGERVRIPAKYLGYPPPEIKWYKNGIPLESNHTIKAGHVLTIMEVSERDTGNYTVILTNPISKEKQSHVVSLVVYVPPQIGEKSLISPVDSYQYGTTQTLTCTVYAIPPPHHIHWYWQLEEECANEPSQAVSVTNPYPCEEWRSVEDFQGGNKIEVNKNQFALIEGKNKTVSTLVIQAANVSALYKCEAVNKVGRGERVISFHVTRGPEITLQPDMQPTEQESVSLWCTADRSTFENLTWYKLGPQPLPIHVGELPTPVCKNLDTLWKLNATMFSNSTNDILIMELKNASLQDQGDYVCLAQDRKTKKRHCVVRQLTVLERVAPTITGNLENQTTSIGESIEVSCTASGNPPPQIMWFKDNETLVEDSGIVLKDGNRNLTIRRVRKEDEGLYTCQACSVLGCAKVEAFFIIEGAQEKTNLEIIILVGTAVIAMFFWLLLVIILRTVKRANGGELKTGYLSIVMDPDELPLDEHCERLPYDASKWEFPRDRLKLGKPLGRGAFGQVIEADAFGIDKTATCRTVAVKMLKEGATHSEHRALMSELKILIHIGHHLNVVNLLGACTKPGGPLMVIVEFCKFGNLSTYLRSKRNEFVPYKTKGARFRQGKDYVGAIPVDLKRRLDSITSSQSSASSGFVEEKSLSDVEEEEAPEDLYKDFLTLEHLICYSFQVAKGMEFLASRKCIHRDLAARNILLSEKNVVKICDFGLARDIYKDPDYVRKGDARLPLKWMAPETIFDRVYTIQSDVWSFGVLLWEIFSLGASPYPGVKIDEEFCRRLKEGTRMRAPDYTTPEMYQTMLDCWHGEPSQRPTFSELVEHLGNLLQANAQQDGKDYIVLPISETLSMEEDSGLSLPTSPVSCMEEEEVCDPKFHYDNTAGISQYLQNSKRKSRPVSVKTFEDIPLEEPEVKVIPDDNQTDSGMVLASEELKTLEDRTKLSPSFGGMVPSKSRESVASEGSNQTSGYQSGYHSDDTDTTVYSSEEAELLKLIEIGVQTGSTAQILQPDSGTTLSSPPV
KDR (h), sequence (P35968 20-1356): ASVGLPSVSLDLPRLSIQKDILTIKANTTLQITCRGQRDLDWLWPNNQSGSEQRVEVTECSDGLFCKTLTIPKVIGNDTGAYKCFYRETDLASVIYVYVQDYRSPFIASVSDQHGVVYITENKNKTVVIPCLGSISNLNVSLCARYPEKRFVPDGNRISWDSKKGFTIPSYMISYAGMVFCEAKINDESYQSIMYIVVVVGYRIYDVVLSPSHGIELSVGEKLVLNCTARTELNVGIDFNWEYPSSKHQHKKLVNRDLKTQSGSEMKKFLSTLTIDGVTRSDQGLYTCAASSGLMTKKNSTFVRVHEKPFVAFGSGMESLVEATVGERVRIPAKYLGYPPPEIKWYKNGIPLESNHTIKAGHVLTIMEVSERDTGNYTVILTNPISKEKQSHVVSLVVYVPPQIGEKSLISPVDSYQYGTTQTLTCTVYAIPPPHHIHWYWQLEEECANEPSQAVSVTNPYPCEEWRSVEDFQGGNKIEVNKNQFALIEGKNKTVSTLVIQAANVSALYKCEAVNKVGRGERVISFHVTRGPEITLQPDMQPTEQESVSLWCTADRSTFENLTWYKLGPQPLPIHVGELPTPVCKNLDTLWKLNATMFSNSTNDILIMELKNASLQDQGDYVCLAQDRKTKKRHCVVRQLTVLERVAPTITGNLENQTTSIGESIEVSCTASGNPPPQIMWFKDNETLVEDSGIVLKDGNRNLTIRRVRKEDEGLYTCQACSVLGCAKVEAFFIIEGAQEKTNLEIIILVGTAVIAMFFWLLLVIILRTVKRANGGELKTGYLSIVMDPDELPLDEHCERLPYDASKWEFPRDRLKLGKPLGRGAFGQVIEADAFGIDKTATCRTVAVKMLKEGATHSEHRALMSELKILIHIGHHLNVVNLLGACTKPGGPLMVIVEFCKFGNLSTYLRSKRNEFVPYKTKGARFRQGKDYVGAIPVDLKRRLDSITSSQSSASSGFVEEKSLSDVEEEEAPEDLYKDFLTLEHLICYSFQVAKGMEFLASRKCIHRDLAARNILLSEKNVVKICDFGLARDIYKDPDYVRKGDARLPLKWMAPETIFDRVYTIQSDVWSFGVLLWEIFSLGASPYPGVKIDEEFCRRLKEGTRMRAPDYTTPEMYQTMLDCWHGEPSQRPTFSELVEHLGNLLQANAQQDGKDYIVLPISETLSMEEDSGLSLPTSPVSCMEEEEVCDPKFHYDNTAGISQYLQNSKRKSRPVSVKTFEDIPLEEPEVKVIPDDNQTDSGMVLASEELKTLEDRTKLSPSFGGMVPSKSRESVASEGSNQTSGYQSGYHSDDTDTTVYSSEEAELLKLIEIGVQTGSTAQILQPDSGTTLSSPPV

| BAF3-FGFR 4 (pIC50) [1] | IC50 (KDR (h)) [M] | IC50 (FGFR1 (h)) [M] | melting point [°C] | BAF3-KDR (MIN IL3 Alamar Blue pIC50) [2] | IC50 (FGFR3 (h)) [M] | IC50 ([4]; 24 h) [µM] | IC50 ([5]; 24 h) [µM] | Compound | BAF3-FGFR1 (PLUS IL3 pIC50) [3] | BAF3-FGFR3 (PLUS IL3 Alamar Blue pIC50) [4, 6] | BAF3-KDR (PLUS IL3 Alamar Blue pIC50) [5, 6] | IC50 [4, 6] [µM] | IC50 [5, 6] [µM] |
| --- | --- | --- | --- | --- | --- | --- | --- | --- | --- | --- | --- | --- | --- |
| 8.21 | 8.91e-07 | 9.33e-09 | 203 | <5 | 1.35e-08 | – | – | COc1cc(OC)cc(N(CC#Cc2nccc(OC)n2)c2ccc3ncc(-c4cnn(C)c4)cc3c2)c1 [Compound 16] | – | – | – | – | – |
| 6.07 | 5.89e-07 | – | – | <5 | 5.89e-09 | – | – | COc1cc(OC)cc(N(CC(O)C(F)(F)F)c2ccc3ncc(-c4cnn(C)c4)cc3c2)c1 (single isomer, unassigned) [Compound 25] | <5 | <5 | <5 | – | – |
| <5 | > 1e-06 | – | 132 | <5 | 9.12e-07 | – | – | COc1cc(OC)cc(N(CC2CCN(c3nccc(OC)n3)C2)c2ccc3ncc(-c4cnn(C)c4)cc3c2)c1 (stereo not shown) [Compound 7] | – | – | – | > 10 | > 10 |
| 5.64 | 8.13e-07 | – | 151 | <5 | 3.24e-08 | – | – | COc1cc(OC)cc(N(Cc2ncccn2)c2ccc3ncc(-c4cnn(C)c4)cc3c2)c1 [Compound 8] | – | – | – | > 10 | > 10 |
| 6.11 | 9.12e-08 | 1.38e-08 | 195 to 196 | 5.65 | 4.17e-09 | – | – | COc1cc(OC)cc(N(CCO)c2ccc3ncc(-c4cnn(C)c4)cc3c2)c1 [Compound 3] | – | – | – | > 10 | > 10 |
| <5 | > 1e-06 | 2.95e-07 | 184 to 193 | <5 | 2.34e-07 | > 10 | > 10 | COc1cc(OC)cc(C(O)c2ccc3ncc(-c4cnn(C)c4)cc3c2)c1 (stereo not shown) [Compound 12] | – | – | – | – | – |
| 6.57 | 1.15e-07 | 2.75e-09 | 196 | 5.01 | 1.26e-09 | – | – | COc1cc(OC)cc(N(Cc2ncc[nH]2)c2ccc3ncc(-c4cnn(C)c4)cc3c2)c1 [Compound 18] | – | – | – | > 10 | > 10 |
| 6.7 | 9.55e-08 | – | 129 | 5.45 | 3.47e-09 | – | – | COc1cc(OC)cc(N(CCNC(C)C)c2ccc3ncc(-c4cnn(CCS(C)(=O)=O)c4)cc3c2)c1 [Compound 14] | – | – | – | > 10 | > 10 |
